This is an account of results in patent US20050053912A1, “Methods for inducing reversible stasis” (priority 2001, published 2005).

For test [1], the system named is zebrafish embryos. Briefly: Viability of zebrafish embryos treated with compound, in anoxia versus normoxia. The class given is in vivo. The settings on record: approx. 8 hpf embryos. The source says: Oxygen Deprivation Environments. For all studies an anaerobic bio-bag type A environmental chamber was used according to manufacturer's instructions (Becton Dickinson). This method contains a resazurin indicator that allows one to determine when the anoxic environment is established. A second method was used to verify suspended animation results. This method involved use of a chamber perfused with 100% N2 gas (Airgas Inc.) and monitored for oxygen using a FYRITE O2 Gas Analyzer (Bacharach, Pittsburgh, Pa.) and Resazurin Indicator (Becton Dickinson). By using these anoxia-producing methods, it took approximately two hours for the oxygen concentration to reach zero. Development of embryos could continue for another 1-2.5 hours, depending on the amount of water present.
This example describes the identification of a compound that causes fish embryos subjected to an anoxic/hypoxic environment to die. In this example, fish were maintained at 28° C. in fish water or embryo media (Westerfield, 1995). Briefly, zebrafish embryos at approximately 8 hpf were pre-treated with Pronase to remove the chorion. Approximately 10 pre-treated fish were placed in each 30 mm petrie dishes in either fish water or embryo media. […] After 24 hours in anoxia, the embryos were returned to room air and viability was assessed visually. […]

Test [2] concerns zebrafish embryos. Briefly: Induction of and exit from stasis in zebrafish embryos under normoxic conditions. The class given is in vivo. As to the method: This example describes the identification of a compound that causes fish embryos to enter stasis. In this example, fish were maintained at 28° C. in fish water or embryo media. Briefly, zebrafish embryos at approximately 8 hpf were pre-treated with Pronase to remove the chorion. Approximately 10 pre-treated fish were placed in 30 mm petrie dishes in either fish water or embryo media. Dilutions of Rotenone (Sigma, St. Louis, Mo.) were added to the pre-treated fish in concentrations from approximately 10 μg/ml reduced in half-logs concentrations down to approximately 10 ng/ml. The embryos were exposed to the compound for approximately 12 hours at 28° C. under normoxic conditions. As a control, pre-treated embryos were incubated in normoxic conditions at 28° C. for the same period of time. After incubation with the compound, the embryos were assessed visually for entry into stasis. […] The Rotenone-treated embryos were removed into fresh medium and incubated at 28° C. under normoxic conditions for 24 hours. The embryos were then assessed visually for the ability to exit stasis.

For “1H, 5H, 11H, 15H-Xantheno[2,3,4-ij:5,6,7-i′j′]diquinolizin-18-ium, 9-[4-(chloromethyl)phenyl]-2,3,6,7,12,13,16,17-octahydro-, chloride [M[…]]”, the “viability assessed visually after anoxia” value in the test with zebrafish embryos [1] (500 nM, approx. 2 h pre-exposure, 24 hours anoxia at 28° C., then returned to room air) is reported as “not viable”. In addition, the “viability, treated embryos not placed in anoxia” value in the test on zebrafish embryos [1] (normoxic conditions at 28° C. for 24 hours (control)) is “viable”.

On to `C=C(C)[C@H]1Cc2c(ccc3c2O[C@@H]2COc4cc(OC)c(OC)cc4[C@@H]2C3=O)O1` [Rotenone], for which the “entry into stasis assessed visually” value in the test with zebrafish embryos [2] (0.1 μg/ml, approx. 8 hpf embryos, approx. 12 hours at 28° C. under normoxic conditions) is “enter stasis”. The “ability to exit stasis assessed visually” value with zebrafish embryos [2] (embryos removed into fresh medium, 28° C., normoxic conditions for 24 hours) is on record as “reversible stasis inducer”.
